Reference: publication PMC4303912, “A primary fish gill cell culture model to assess pharmaceutical uptake and efflux: Evidence for passive and facilitated transport” (Aquatic Toxicology (Amsterdam, Netherlands), 2015)
Where two headings read alike, the source gives them in different places. Marks after values point to notes of the source that are not given here.

How the values were obtained:
in vitro = conditions: rainbow trout (Oncorhynchus mykiss)
[1] = cited from earlier work
DSI gill cell epithelium [2] = assay: Concentration equilibrium transport assays (CETA); conditions: for CETA, percentage of initial concentration apical versus basal: 1 μg L^−1 both sides, over 48 h
DSI gill cell epithelium [3] = conditions: for Uptake TR (Papp A:B/Papp B:A): rainbow trout (Oncorhynchus mykiss)
[4] = tested on: propranolol uptake across DSI gill cell epithelium; assay: Inhibition of the uptake of propranolol by transporter inhibitors; conditions: 400 nM inhibitor, 48 h
[5] = Membrane (paracellular) permeability with 14C-mannitol; format: in vitro ADME, rainbow trout (Oncorhynchus mykiss); conditions: for Papp A→B at 24 h, 0.43 nM: rainbow trout (Oncorhynchus mykiss)
DSI gill cell epithelium [6] = assay: Bidirectional transport assays (BTA), apparent permeability coefficients and transport ratios; conditions: for difference between Papp A:B and Papp B:A: 6 h; for time-dependent BTA, uptake versus efflux (% of donor concentration): over 48 h
[7] = set-up: method as in AstraZeneca, 2014; conditions: experimentally measured values, ref AstraZeneca, 2014, cited from earlier work
[8] = Bidirectional transport assays (BTA), apparent permeability coefficients and transport ratios; conditions: rainbow trout (Oncorhynchus mykiss)
[9] = pH-dependent transport of propranolol; format: in vitro ADME, rainbow trout (Oncorhynchus mykiss); conditions: rainbow trout (Oncorhynchus mykiss); for Papp B→A at 6 h, 1 μg L^−1: 1 μg L^−1, read-out: Papp B:A (efflux permeability)
DSI gill cell epithelium [10] = assay: pH-dependent transport of propranolol; format: in vitro ADME, rainbow trout (Oncorhynchus mykiss); conditions: pH from 8 to 9.5; asymmetrical; 6 h
DSI gill cell epithelium [11] = assay: Concentration-dependent uptake of propranolol, in vitro basal concentrations; format: in vitro ADME, rainbow trout (Oncorhynchus mykiss); conditions: for In vitro concentration (basal compartment): 6 h apical exposure, asymmetrical
Protocol: Radioactivity was analyzed as previously described in Section 2.3.
This was calculated using the mammalian fish leverage model, whereby the predicted plasma concentration can be described by multiplying the environmental concentration by the blood to water partitioning coefficient ([Huggett et al., 2004]) using the Fitzsimmons model for the partitioning of compounds between blood and water ([Fitzsimmons et al., 2001]).

[12] = set-up: method as in Owen et al., 2009; conditions: ref Owen et al., 2009, cited from earlier work; for In vivo plasma concentration: 40 days exposure
[13] = nominal water concentration 10 μg L^−1
[14] = nominal water concentration 100 μg L^−1
[15] = nominal water concentration 1000 μg L^−1
[16] = nominal water concentration 10,000 μg L^−1

COc1ccc(CC(C)NCC(O)c2ccc(O)c(NC=O)c2)cc1 (centres unmarked) [Formoterol, formoterol]
efflux ratio (in vitro): 0.93 | efflux ratio (in vitro; pH 7.7): 1.03 | pKa (acidic) ([1]; acidic): 7.9 | pKa (basic) ([1]; basic): 9.2 | CETA, percentage of initial concentration apical versus basal (DSI gill cell epithelium [2]; asymmetrical conditions): no signs of facilitated transport | CETA, percentage of initial concentration apical versus basal (DSI gill cell epithelium [2]; symmetrical conditions): more in the apical than basal | difference between Papp A:B and Papp B:A (DSI gill cell epithelium [3]): no significant differences | time-dependent BTA, uptake versus efflux (% of donor concentration) (DSI gill cell epithelium [3]): slightly greater uptake than efflux | Uptake TR (Papp A:B/Papp B:A) (DSI gill cell epithelium [3]): 1.08 | Uptake TR (Papp A:B/Papp B:A) (DSI gill cell epithelium [3]; pH 7.7): 0.97

CN(C)CCCN1c2ccccc2CCc2ccccc21 [Imipramine, imipramine]
pKa [1]: around 9.5 | facilitated transport as share of the total transport (DSI gill cell epithelium [2]; CETA): approximately 10% | CETA, percentage of initial concentration apical versus basal (DSI gill cell epithelium [2]; asymmetrical conditions): increased apical to basal transport | CETA, percentage of initial concentration apical versus basal (DSI gill cell epithelium [2]; symmetrical conditions): increased basal to apical facilitated transport

CN(C)C(=O)CCSC(SCCC(=O)O)c1cccc(/C=C/c2ccc3ccc(Cl)cc3n2)c1 (centres unmarked) [MK571]
decrease in propranolol permeability compared to the control ([4]; apical application): approximately 40% | decrease in propranolol permeability compared to the control ([4]; basal application): approximately 40%

OC[C@@H](O)[C@@H](O)[C@H](O)[C@H](O)CO [Mannitol, mannitol]
Papp at 24 h, 0.43 nM ([5]; pH 7.7, cell free inserts, TER 0 Ω cm^2 (blanked), apical freshwater, read-out: Mannitol flux (permeability)): 3.6 ± 0.2 ×10⁻⁶ cm/s | Papp A→B at 24 h, 0.43 nM ([5]; pH 7.7, DSI epithelia with TER 200–1000 Ω cm^2, apical freshwater, read-out: mannitol permeability): 1.1 ± 1.1 ×10⁻⁶ cm/s | Papp A→B at 24 h, 0.43 nM ([5]; pH 7.7, DSI epithelia with TER >2 kΩ cm^2, apical freshwater, read-out: mannitol permeability (Papp A:B)): 0.1 ± 0.01 ×10⁻⁶ cm/s

COCCc1ccc(OCC(O)CNC(C)C)cc1 (centres unmarked) [Metoprolol, metoprolol]
CETA, percentage of initial concentration apical versus basal (DSI gill cell epithelium [2]; asymmetrical conditions): no signs of facilitated transport | CETA, percentage of initial concentration apical versus basal (DSI gill cell epithelium [2]; symmetrical conditions): no significant differences | difference between Papp A:B and Papp B:A (DSI gill cell epithelium [6]; asymmetrical conditions): no significant differences | time-dependent BTA, uptake versus efflux (% of donor concentration) (DSI gill cell epithelium [6]; asymmetrical conditions): slightly greater uptake than efflux

CC(C)NCC(O)COc1cccc2ccccc12 (centres unmarked) [Propranolol, propranolol]
facilitated transport as share of the total transport (DSI gill cell epithelium [2]; CETA): approximately 10% | CETA, percentage of initial concentration apical versus basal (DSI gill cell epithelium [2]; asymmetrical conditions): increased apical to basal transport | CETA, percentage of initial concentration apical versus basal (DSI gill cell epithelium [2]; symmetrical conditions): significantly more than the basal | log Kow ([7]; pH 7.4): 1.12 ^* | Papp A→B at 6 h, 1 μg L^−1 [8]: 1.7 ± 0.2 ×10⁻⁶ cm/s | Papp B→A at 6 h, 1 μg L^−1 [8]: 1.1 ± 0.02 ×10⁻⁶ cm/s | Papp B→A at 6 h, 1 μg L^−1 ([8]; pH 7.7): 0.8 ± 0.1 ×10⁻⁶ cm/s | difference between Papp A:B and Papp B:A (DSI gill cell epithelium [6]; asymmetrical conditions): significantly higher | time-dependent BTA, uptake versus efflux (% of donor concentration) (DSI gill cell epithelium [6]; asymmetrical conditions): taken up across the gill cell surface than effluxed | Papp A→B at 6 h, 1 μg L^−1 ([9]; apical freshwater pH 6, asymmetrical, 1 μg L^−1, read-out: Papp A:B (uptake permeability)): 0.4 ± 0.03 ×10⁻⁶ cm/s | Papp B→A at 6 h, 1 μg L^−1 ([9]; apical freshwater pH 6, asymmetrical): 2.8 ± 0.1 ×10⁻⁶ cm/s | Papp B→A at 6 h, 1 μg L^−1 ([9]; apical freshwater pH 8, asymmetrical): 0.8 ± 0.1 ×10⁻⁶ cm/s | effect of pH increase on Papp (DSI gill cell epithelium [10]): without significant effect | in vitro basolateral concentration as average share of actual plasma concentration (DSI gill cell epithelium [11]): 16% | in vitro basolateral concentration as average share of predicted plasma concentration (DSI gill cell epithelium [11]): 6% | slope of [rate] versus [concentration] (flux) (DSI gill cell epithelium [11]; 0.014–10,000 μg L^−1, 6 h, linear regression, n = 54, r^2 = 0.974): 0.052 | slope of [in vitro] versus [actual] plasma concentration (DSI gill cell epithelium [11]; n = 21, r^2 = 0.966): 0.155 | slope of [in vitro] versus [predicted] plasma concentration (DSI gill cell epithelium [11]; n = 21, r^2 = 0.995): 0.063 | In vitro concentration (basal compartment) (DSI gill cell epithelium [11]; nominal water concentration 0.1 μg L^−1): 0.04 (±0.002) ng mL^−1 | In vitro concentration (basal compartment) (DSI gill cell epithelium [11]; nominal water concentration 1.0 μg L^−1): 0.10 (±0.001) ng mL^−1 | In vitro concentration (basal compartment) (DSI gill cell epithelium [11]; [13]): 0.72 (±0.02) ng mL^−1 | In vitro concentration (basal compartment) (DSI gill cell epithelium [11]; [14]): 7.5 (±0.3) ng mL^−1 | In vitro concentration (basal compartment) (DSI gill cell epithelium [11]; [15]): 79.5 (±7.3) ng mL^−1 | In vitro concentration (basal compartment) (DSI gill cell epithelium [11]; [16]): 812 (±158) ng mL^−1 | In vitro concentration (basal compartment) (DSI gill cell epithelium [11]; nominal water concentration 100,000 μg L^−1): 5545 (±313) ng mL^−1 | In vivo plasma concentration ([12]; nominal water concentration 1.0 μg L^−1, pooled plasma sample): 0.94 ^* (n/a) ng mL^−1 | In vivo plasma concentration [12, 13]: 3.3 (±0.4) ng mL^−1 | In vivo plasma concentration [12, 14]: 16 (±7) ng mL^−1 | In vivo plasma concentration [12, 15]: 280 (±116) ng mL^−1 | In vivo plasma concentration [12, 16]: 5200 (±1333) ng mL^−1 | actual plasma concentrations as share of predicted [12]: 59%

CNC(=C[N+](=O)[O-])NCCSCc1ccc(CN(C)C)o1 [Ranitidine, ranitidine]
pKa [1]: 8.08 | facilitated transport as share of the total transport, efflux (DSI gill cell epithelium [2]; CETA, efflux): around 5% | CETA, percentage of initial concentration apical versus basal (DSI gill cell epithelium [2]; symmetrical conditions): no significant differences | efflux ratio at 6 h, 1 μg L^−1 [8]: 0.83 | difference between Papp A:B and Papp B:A (DSI gill cell epithelium [6]; asymmetrical conditions): no significant differences | time-dependent BTA, uptake versus efflux (% of donor concentration) (DSI gill cell epithelium [6]; asymmetrical conditions): taken up across the gill cell surface than effluxed | time-dependent BTA, uptake versus efflux (% of donor concentration) (DSI gill cell epithelium [6]; symmetrical conditions): greater efflux transport

CC(C)(C)NCC(O)c1cc(O)cc(O)c1 (centres unmarked) [Terbutaline, terbutaline]
CETA, percentage of initial concentration apical versus basal (DSI gill cell epithelium [2]; asymmetrical conditions): no signs of facilitated transport | CETA, percentage of initial concentration apical versus basal (DSI gill cell epithelium [2]; symmetrical conditions): no significant differences | log Kow ([7]; no pH given): 1.29 | efflux ratio at 6 h, 1 μg L^−1 [8]: 1.09 | efflux ratio at 6 h, 1 μg L^−1 ([8]; pH 7.7): 1.13 | difference between Papp A:B and Papp B:A (DSI gill cell epithelium [6]; asymmetrical conditions): no significant differences | time-dependent BTA, uptake versus efflux (% of donor concentration) (DSI gill cell epithelium [6]; asymmetrical conditions): slightly greater uptake than efflux
